The values that follow come from patent US10508104B2, “6-hydroxy-5-(phenyl/heteroarylsulfonyl)pyrimidin-4(1H)-one as APJ agonists” (Bristol-Myers Squibb Company, priority 2016, dated 2019).

For this experiment, the target named is human APJ receptor (Homo sapiens (Human), UniProt P35414). In words: Intracellular cAMP accumulation assay (APJ hcAMP, HTRF). Particulars: read-out: Human APJ cAMP EC50 Potency range. The class given is cell-based. The procedure, abridged: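 HEK293 cells stably expressing human APJ, 5,000 per well, incubated 30 min at rt with compound, […] and 2 μM forskolin. cAMP measured by HTRF against a cAMP standard curve as inhibition of forskolin-driven production. EC50 from variable-slope sigmoidal fit.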
On the technique in general: cAMP levels reflect the balance of adenylyl cyclase and phosphodiesterase activity.

Where [1] appears, read: human APJ, intracellular cAMP accumulation.
The mark [2] stands for this setting: HEK293 cells stably expressing human APJ receptor, inhibition of forskolin-mediated cAMP production.

Molecules are shown by their SMILES. Where two headings read alike, the source gives them in different places.

Chain of human APJ receptor (P35414 whole entry): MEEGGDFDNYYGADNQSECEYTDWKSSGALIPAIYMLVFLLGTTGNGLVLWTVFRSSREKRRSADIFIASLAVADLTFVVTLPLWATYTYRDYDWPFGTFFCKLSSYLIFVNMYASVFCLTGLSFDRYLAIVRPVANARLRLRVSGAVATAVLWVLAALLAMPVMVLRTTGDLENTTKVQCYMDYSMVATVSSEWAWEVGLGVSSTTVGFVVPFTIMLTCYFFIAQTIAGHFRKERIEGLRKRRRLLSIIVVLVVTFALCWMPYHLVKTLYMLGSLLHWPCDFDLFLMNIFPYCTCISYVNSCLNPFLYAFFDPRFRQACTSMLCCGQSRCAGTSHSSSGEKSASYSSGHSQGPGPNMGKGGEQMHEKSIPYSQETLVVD

As for `CCCc1nc(=O)c(S(=O)(=O)c2ccc(-c3cncc(F)c3)cc2)c(O)n1[C@@H](COC)c1ccccc1` [Example 172, 5-[4-(5-fluoropyridin-3-yl)benzenesulfonyl]-6-hydroxy-1-[(1R)-2-methoxy-1-phenylethyl]-2-propyl-1,4-dihydropyrimidin-4-one], under setting [1], the EC50 (in general, the concentration needed to bring the measured effect to its halfway point) was 0.01 to 10 nM. Still for that read-out and setting: then `CCCc1nc(=O)c(S(=O)(=O)c2ccc(-c3cccnc3C)cc2)c(O)n1[C@@H](COC)c1ccccc1` [Example 173, 6-hydroxy-1-[(1R)-2-methoxy-1-phenylethyl]-5-[4-(2-methylpyridin-3-yl)benzenesulfonyl]-2-propyl-1,4-dihydropyrimidin-4-one], with 0.01 to 10 nM; and `CCCc1nc(=O)c(S(=O)(=O)c2ccc(-c3ccc(F)nc3)cc2)c(O)n1[C@@H](COC)c1ccccc1` [Example 174, 5-[4-(6-fluoropyridin-3-yl)benzenesulfonyl]-6-hydroxy-1-[(1R)-2-methoxy-1-phenylethyl]-2-propyl-1,4-dihydropyrimidin-4-one], with 0.01 to 10 nM; and `CCCc1nc(=O)c(S(=O)(=O)c2ccc(-c3ccncc3C)cc2)c(O)n1[C@@H](COC)c1ccccc1` [Example 175, 6-hydroxy-1-[(1R)-2-methoxy-1-phenylethyl]-5-[4-(3-methylpyridin-4-yl)benzenesulfonyl]-2-propyl-1,4-dihydropyrimidin-4-one], with 0.01 to 10 nM. For `CCCc1nc(=O)c(S(=O)(=O)c2ccc(-c3ccnc(F)c3C)cc2)c(O)n1[C@@H](COC)c1ccccc1` [Example 176, 5-[4-(2-fluoro-3-methylpyridin-4-yl)benzenesulfonyl]-6-hydroxy-1-[(1R)-2-methoxy-1-phenylethyl]-2-propyl-1,4-dihydropyrimidin-4-one], the EC50 under setting [1] was in the range of 0.01 to 10 nM. Still for that read-out and setting: in the case of `CCCc1nc(=O)c(S(=O)(=O)c2ccc(-c3ccc(F)nc3C)cc2)c(O)n1[C@@H](COC)c1ccccc1` [Example 177, 5-[4-(6-fluoro-2-methylpyridin-3-yl)benzenesulfonyl]-6-hydroxy-1-[(1R)-2-methoxy-1-phenylethyl]-2-propyl-1,4-dihydropyrimidin-4-one] it was 0.01 to 10 nM; in that of `COC[C@@H](c1ccccc1)n1c(CC2CC2)nc(=O)c(S(=O)(=O)c2ccc(-c3ccncc3C)cc2)c1O` [Example 178, 2-(cyclopropylmethyl)-6-hydroxy-1-[(1R)-2-methoxy-1-phenylethyl]-5-[4-(3-methylpyridin-4-yl)benzenesulfonyl]-1,4-dihydropyrimidin-4-one], 0.01 to 10 nM; in that of `COC[C@@H](c1ccccc1)n1c(CC2CC2)nc(=O)c(S(=O)(=O)c2ccc(-c3ccnc(F)c3C)cc2)c1O` [Example 179, 2-(cyclopropylmethyl)-5-[4-(2-fluoro-3-methylpyridin-4-yl)benzenesulfonyl]-6-hydroxy-1-[(1R)-2-methoxy-1-phenylethyl]-1,4-dihydropyrimidin-4-one], 0.01 to 10 nM.

Take `COC[C@@H](c1ccccc1)n1c(CC2CC2)nc(=O)c(S(=O)(=O)c2ccc(-c3cccnc3C)cc2)c1O` [Example 180, 2-(cyclopropylmethyl)-6-hydroxy-1-[(1R)-2-methoxy-1-phenylethyl]-5-[4-(2-methylpyridin-3-yl)benzenesulfonyl]-1,4-dihydropyrimidin-4-one]: the EC50 under setting [1] is 0.01 to 10 nM. Take `COC[C@@H](c1ccccc1)n1c(CC2CC2)nc(=O)c(S(=O)(=O)c2ccc(-c3cncc(F)c3)cc2)c1O` [Example 181, 2-(cyclopropylmethyl)-5-[4-(5-fluoropyridin-3-yl)benzenesulfonyl]-6-hydroxy-1-[(1R)-2-methoxy-1-phenylethyl]-1,4-dihydropyrimidin-4-one]: the EC50 under setting [1] fell in the range of 0.01 to 10 nM. Turning to `COC[C@@H](c1ccccc1)n1c(CC2CC2)nc(=O)c(S(=O)(=O)c2ccc(-c3ccc(F)nc3)cc2)c1O` [Example 182, 2-(cyclopropylmethyl)-5-[4-(6-fluoropyridin-3-yl)benzenesulfonyl]-6-hydroxy-1-[(1R)-2-methoxy-1-phenylethyl]-1,4-dihydropyrimidin-4-one], the EC50 under setting [1] is 0.01 to 10 nM.

`COC[C@@H](c1ccccc1)n1c(CC2CC2)nc(=O)c(S(=O)(=O)c2ccc(-c3ccc(F)nc3C)cc2)c1O` [Example 183, 2-(cyclopropylmethyl)-5-[4-(6-fluoro-2-methylpyridin-3-yl)benzenesulfonyl]-6-hydroxy-1-[(1R)-2-methoxy-1-phenylethyl]-1,4-dihydropyrimidin-4-one]: the EC50 under setting [1] is 0.01 to 10 nM. For `COC[C@@H](c1ccccc1)n1c(CCC(C)C)nc(=O)c(S(=O)(=O)c2ccc(Br)cc2)c1O` [Example 184, (R)-5-((4-Bromophenyl)sulfonyl)-6-hydroxy-2-isopentyl-3-(2-methoxy-1-phenylethyl)pyrimidin-4(3H)-one], the EC50 under setting [2] lay within 10 to 100 nM. For `CCCCc1nc(=O)c(S(=O)(=O)c2ccc(Br)cc2)c(O)n1[C@H](C)c1ccc(OC)cc1` [Example 185, 5-(4-bromobenzenesulfonyl)-2-butyl-6-hydroxy-1-[(1R)-1-(4-methoxyphenyl)ethyl]-1,4-dihydropyrimidin-4-one], the EC50 under setting [1] was 100 to 300 nM. Still for that read-out and setting: then `CCCCc1nc(O)c(S(=O)(=O)c2ccc(Br)cc2)c(=O)n1C(C)c1cccnc1` (stereo not shown) [Example 187, 5-(4-bromobenzenesulfonyl)-2-butyl-6-hydroxy-3-[1-(pyridin-3-yl)ethyl]-3,4-dihydropyrimidin-4-one], with 100 to 300 nM.

Consider `COC[C@@H](c1ccccc1)n1c(CCC(C)C)nc(=O)c(S(=O)(=O)c2ccc(-c3ccnc(F)c3C)cc2)c1O` [Example 189, (R)-5-((4-(2-Fluoro-3-methylpyridin-4-yl)phenyl)sulfonyl)-6-hydroxy-2-isopentyl-1-(2-methoxy-1-phenylethyl)pyrimidin-4(1H)-one], for which the EC50 under setting [2] fell in the range of 0.01 to 10 nM.

For `COC[C@@H](c1ccccc1)n1c(CCC(C)C)nc(=O)c(S(=O)(=O)c2ccc(-c3cccnc3C)cc2)c1O` [Example 190, 6-hydroxy-1-[(1R)-2-methoxy-1-phenylethyl]-2-(3-methylbutyl)-5-[4-(2-methylpyridin-3-yl)benzenesulfonyl]-1,4-dihydropyrimidin-4-one], under setting [1], the EC50 was 0.01 to 10 nM. Consider `COC[C@@H](c1ccccc1)n1c(CCC(C)C)nc(=O)c(S(=O)(=O)c2ccc(-c3ccncc3C)cc2)c1O` [Example 191, 6-hydroxy-1-[(1R)-2-methoxy-1-phenylethyl]-2-(3-methylbutyl)-5-[4-(3-methylpyridin-4-yl)benzenesulfonyl]-1,4-dihydropyrimidin-4-one], for which the concentration giving a half-maximal response (EC50) under setting [1] was 0.01 to 10 nM. Turning to `CCCCc1nc(=O)c(S(=O)(=O)c2ccc(-c3ccncc3C)cc2)c(O)n1[C@@H](CC)c1cccc(Cl)c1` [Example 192, 2-butyl-1-[(1S)-1-(3-chlorophenyl)propyl]-6-hydroxy-5-[4-(3-methylpyridin-4-yl)benzenesulfonyl]-1,4-dihydropyrimidin-4-one], the EC50 under setting [1] is 0.01 to 10 nM. For `CCCCc1nc(=O)c(S(=O)(=O)c2ccc(-c3cccnc3C)cc2)c(O)n1[C@@H](CC)c1cccc(Cl)c1` [Example 193, 2-butyl-1-[(1S)-1-(3-chlorophenyl)propyl]-6-hydroxy-5-[4-(2-methylpyridin-3-yl)benzenesulfonyl]-1,4-dihydropyrimidin-4-one], the EC50 under setting [1] is 0.01 to 10 nM. Take `CCCCc1nc(=O)c(S(=O)(=O)c2ccc(-c3ccnc(F)c3C)cc2)c(O)n1[C@@H](CC)c1cccc(Cl)c1` [Example 194, 2-butyl-1-[(1S)-1-(3-chlorophenyl)propyl]-5-[4-(2-fluoro-3-methylpyridin-4-yl)benzenesulfonyl]-6-hydroxy-1,4-dihydropyrimidin-4-one]: the EC50 under setting [1] lay in the range of 0.01 to 10 nM. Still for that read-out and setting: in the case of `COC[C@@H](c1ccccc1)n1c(CCC(C)C)nc(=O)c(S(=O)(=O)c2ccc(-c3cncc(F)c3)cc2)c1O` [Example 195, 5-[4-(5-fluoropyridin-3-yl)benzenesulfonyl]-6-hydroxy-1-[(1R)-2-methoxy-1-phenylethyl]-2-(3-methylbutyl)-1,4-dihydropyrimidin-4-one] it was 0.01 to 10 nM; in that of `COC[C@@H](c1ccccc1)n1c(CCC(C)C)nc(=O)c(S(=O)(=O)c2ccc(-c3ccc(F)nc3C)cc2)c1O` [Example 196, 5-[4-(6-fluoro-2-methylpyridin-3-yl)benzenesulfonyl]-6-hydroxy-1-[(1R)-2-methoxy-1-phenylethyl]-2-(3-methylbutyl)-1,4-dihydropyrimidin-4-one], 0.01 to 10 nM; in that of `CCCCc1nc(=O)c(S(=O)(=O)c2ccc(-c3cncc(F)c3)cc2)c(O)n1[C@@H](CC)c1cccc(Cl)c1` [Example 197, 2-butyl-1-[(1S)-1-(3-chlorophenyl)propyl]-5-[4-(5-fluoropyridin-3-yl)benzenesulfonyl]-6-hydroxy-1,4-dihydropyrimidin-4-one], 0.01 to 10 nM.

For `CCCCc1nc(=O)c(S(=O)(=O)c2ccc(-c3ccc(F)nc3C)cc2)c(O)n1[C@@H](CC)c1cccc(Cl)c1` [Example 198, 2-butyl-1-[(1S)-1-(3-chlorophenyl)propyl]-5-[4-(6-fluoro-2-methylpyridin-3-yl)benzenesulfonyl]-6-hydroxy-1,4-dihydropyrimidin-4-one], the EC50 under setting [1] was in the range of 0.01 to 10 nM.

For the compound `COC[C@@H](c1ccccc1)n1c(CCC(C)C)nc(=O)c(S(=O)(=O)c2ccc(-c3ccc(F)nc3)cc2)c1O` [Example 199, 5-[4-(6-fluoropyridin-3-yl)benzenesulfonyl]-6-hydroxy-1-[(1R)-2-methoxy-1-phenylethyl]-2-(3-methylbutyl)-1,4-dihydropyrimidin-4-one], the concentration giving a half-maximal response (EC50) under setting [1] fell in the range of 0.01 to 10 nM. For `CCCCc1nc(=O)c(S(=O)(=O)c2ccc(-c3ccc(F)nc3)cc2)c(O)n1[C@@H](CC)c1cccc(Cl)c1` [Example 200, 2-butyl-1-[(1S)-1-(3-chlorophenyl)propyl]-5-[4-(6-fluoropyridin-3-yl)benzenesulfonyl]-6-hydroxy-1,4-dihydropyrimidin-4-one], under setting [1], the EC50 fell in the range of 0.01 to 10 nM.

As for `CCCCc1nc(=O)c(S(=O)(=O)c2ccc(-c3ccncc3C)cc2)c(O)n1C(c1ccccc1)C1CC1` (stereo not shown) [Example 201], under setting [1], the concentration giving a half-maximal response (EC50) lay within 0.01 to 10 nM.
